Laboratory results published in ChEMBL document CHEMBL6120933, “Improving Anti-HIV activity and pharmacokinetics of enfuvirtide (T20) by modification with oligomannose” (Eur J Med Chem, 2024).

System: Human immunodeficiency virus 1
Experiment: Antiviral activity against HIV-1 pseudovirus infected in HEK293T cell transfected with DC-SIGN and luciferase assessed as inhibition of viral entry into cells at 500 uM preincubated with cells for 2 hrs followed by virus addition and measured after 4 hrs by p24 ELISA relative to control
Format: functional
Settings: Human immunodeficiency virus 1, HEK-293T, time 6 hrs

Q: Which inhibition at 500 µM does the source give for `[N-]=[N+]=NCCO[C@H]1O[C@H](CO[C@H]2O[C@H](CO)[C@@H](O)[C@H](O)[C@@H]2O[C@H]2O[C@H](CO)[C@@H](O)[C@H](O)[C@@H]2O)[C@@H](O)[C@H](O[C@H]2O[C@H](CO)[C@@H](O)[C@H](O)[C@@H]2O[C@H]2O[C@H](CO)[C@@H](O)[C@H](O)[C@@H]2O)[C@@H]1O` here?
A: The inhibition at 500 µM was 18%.
